Test results reported in PMC9527238, “Glutamate and GABAA receptor crosstalk mediates homeostatic regulation of neuronal excitation in the mammalian brain” (Signal Transduction and Targeted Therapy, 2022).

Tests used:
Format in all cases: cell-based
[1] = target: T1, α1^E137G β2 γ2 GABAAR (Rattus norvegicus, UniProt P62813+P63138, E164G); test: Patch clamp, HEK293, mutant GABAAR; settings: Glu 1 mM; GABA 1 µM; normalized to wild-type α1β2γ2
T1 construct: expressed in transfected cells; host or cells: HEK293
Description: (§1) The subunits are color-coded individually. The boxed regions are further enlarged in the middle panels, highlighting the predicted glutamate binding pocket in the α+ and β− interface, just below the loop C. […] Relative potentiation was obtained by normalizing potentiation observed in the mutated receptor to that in the respective wild-type receptor.
(§2) To positively confirm one of these two putative binding sites involved in glutamate binding, we performed a systemic mutational analysis of critical amino acids around these two sites followed by electrophysiological characterizations of their impacts on glutamate potentiation in HEK293 cells expressing wild-type or mutated α1β2γ2 GABAARs (Table 1).
(§3) HEK293 cells were cultured in DMEM (Invitrogen) supplemented with 10% fetal bovine serum. Cells were grown to 40–60% confluence and transiently transfected using Lipofectamine 2000 (Invitrogen) with 1:0.5–1 plasmid/lipid ratio. Cells were transfected with a pBK-CMV expression vector containing a rat recombinant GABAAR α, β or γ subunits. Co-transections were done with a plasmid ratio of 1:1 αβ and 2:2:1 for αβγ subunit combinations, respectively. pcDNA3.1-GFP was also co-transfected along with GABAAR subunits as a transfected marker in order to facilitate the visualization of the transfected cells during electrophysiological experiments. Cells were re-plated on glass coverslips after 15–20 h transfection and were cultured for an additional 15–24 h before whole-cell patch-clamp recordings.
(§4) The site-directed mutagenesis of α, β or γ subunits were performed by using the QuikChange method (Stratagene). […] Wild-type or mutant subunits were transfected in HEK293 cells and subjected to electrophysiology examinations.
(§5) Whole-cell patch-clamp recordings were performed under voltage-clamp mode using an Axopatch 200B or 1D patch-clamp amplifier (Molecular Devices) on HEK293 cells and cultured neurons. Whole-cell currents were recorded at a holding potential of −60 mV, and signals were filtered at 2 kHz, digitized at 10 kHz (Digidata 1322 A). Recording pipettes (3–5 MΩ) were filled with the intracellular solution that contained (mM): CsCl 140, HEPES 10, Mg-ATP 4, QX-314 5, pH 7.20; osmolarity, 290–295 mOsm. BAPTA (10 mM) was added in the intracellular solution. The coverslips were continuously superfused with the extracellular solution containing (mM): NaCl 140, KCl 5.4, HEPES 10, MgCl2 1.0, CaCl2 1.3, glucose 20, pH 7.4; osmolarity, 305–315 mOsm. […] Dose–response curves were created by fitting data to Hill equation: I = Imax/[1 + (EC50/[A])^n], where I is the current, Imax is the maximum current, [A] is a given concentration of agonist, n is the Hill coefficient. […] All experiments were performed at room temperature.

[2] = target: T2, α1^K155D β2 γ2 GABAAR (Rattus norvegicus, UniProt P62813+P63138, K182D); test: Patch clamp, HEK293, mutant GABAAR; settings: Glu 1 mM; GABA 1 µM; normalized to wild-type α1β2γ2
T2 construct: expressed in transfected cells; host or cells: HEK293
Description: as §1, §2, §3, §4, §5

[3] = target: T3, αE137Dβγ GABAAR (Rattus norvegicus, UniProt P62813+P63138, E164D); test: Patch clamp, HEK293, mutant GABAAR; settings: HEK293, read-out: Glutamate potentiation of GABA currents, % of control, normalized to wild-type α1β2γ2
T3 construct: expressed in transfected cells; host or cells: HEK293
Description: (§6) To further determine the relative significance between the electrostatic and the side chain steric arrangements of these critical amino acid residues in their interaction with glutamate, we next studied the effects of substitution of these amino acids with amino acids of various sizes or charges on the glutamate potentiation. We substituted α1K104, α1E137, α1K155, or β2E181 with […], a non-charged amino acid, in order to perturb the electrostatic accessibility of glutamate to the binding pocket.
(§7) Fig. 4 Property characterization of glutamate binding sites in HEK cells expressing wild-type or mutated αβγ GABAARs. a, b The effects of electrostatic charge and/or size of the pocket-forming residues on glutamate-induced functional modulation.
as §3, §4, §5

[4] = target: T4, αK104Wβγ GABAAR (Rattus norvegicus, UniProt P62813+P63138, K131W); test: Patch clamp, HEK293, mutant GABAAR; settings: HEK293, read-out: Glutamate potentiation of GABA currents, % of control, normalized to wild-type α1β2γ2
T4 construct: expressed in transfected cells; host or cells: HEK293
Description: as §6, §7, §3, §4, §5

[5] = target: T5, αβE181Dγ GABAAR (Rattus norvegicus, UniProt P62813+P63138, E206D); test: Patch clamp, HEK293, mutant GABAAR; settings: HEK293, read-out: Glutamate potentiation of GABA currents, % of control, normalized to wild-type α1β2γ2
T5 construct: expressed in transfected cells; host or cells: HEK293
Description: as §6, §7, §3, §4, §5

[6] = target: T6, α1β2γ2E168K GABAAR (Rattus norvegicus, UniProt P18508+P62813+P63138, E206K); test: Patch clamp, HEK293, mutant GABAAR
T6 construct: expressed in transfected cells; host or cells: HEK293
Description: (§8) However, for the GABAAR containing only α and β subunits, there are two α^+/β^− interfaces, with potentially two glutamate-binding pockets (Fig. 5a; Right).
as §3, §4, §5

[7] = target: T7, α1β2γ2R197E GABAAR (Rattus norvegicus, UniProt P18508+P62813+P63138, R235E); test: Patch clamp, HEK293, mutant GABAAR
T7 construct: expressed in transfected cells; host or cells: HEK293
Description: as §8, §3, §4, §5

[8] = target: T8, α2/β2/γ2 GABAARs (Rattus norvegicus, UniProt P23576+P63138); test: Patch clamp, HEK293, α2-containing GABAAR; settings: wild-type α2/β2/γ2
T8 construct: expressed in transfected cells; host or cells: HEK293

[9] = target: T9, α2E137Gβγ GABAAR (Rattus norvegicus, UniProt P23576+P63138, E165G); test: Patch clamp, HEK293, mutant GABAAR; settings: HEK293, read-out: Glutamate potentiation of GABA currents, % of control, normalized to respective wild-type receptor
T9 construct: expressed in transfected cells; host or cells: HEK293
Description: as §7, §3, §4, §5

[10] = target: T10, α2K104Dβγ GABAAR (Rattus norvegicus, UniProt P23576+P63138, K132D); test: Patch clamp, HEK293, mutant GABAAR; settings: HEK293, read-out: Glutamate potentiation of GABA currents, % of control, normalized to respective wild-type receptor
T10 construct: expressed in transfected cells; host or cells: HEK293
Description: as §7, §3, §4, §5

[11] = target: T11, α2K155Dβγ GABAAR (Rattus norvegicus, UniProt P23576+P63138, K183D); test: Patch clamp, HEK293, mutant GABAAR; settings: HEK293, read-out: Glutamate potentiation of GABA currents, % of control, normalized to respective wild-type receptor
T11 construct: expressed in transfected cells; host or cells: HEK293
Description: as §7, §3, §4, §5

[12] = target: T12, αβ1E182Gγ GABAAR (Rattus norvegicus, UniProt P15431+P62813, E207G); test: Patch clamp, HEK293, mutant GABAAR; settings: HEK293, read-out: Glutamate potentiation of GABA currents, % of control, normalized to respective wild-type receptor
T12 construct: expressed in transfected cells; host or cells: HEK293
Description: as §7, §3, §4, §5

[13] = target: T13, αβ3E182Gγ GABAAR (Rattus norvegicus, UniProt P62813+P63079, E207G); test: Patch clamp, HEK293, mutant GABAAR; settings: HEK293, read-out: Glutamate potentiation of GABA currents, % of control, normalized to respective wild-type receptor
T13 construct: expressed in transfected cells; host or cells: HEK293
Description: as §7, §3, §4, §5

T7 sequence (P62813 28-455): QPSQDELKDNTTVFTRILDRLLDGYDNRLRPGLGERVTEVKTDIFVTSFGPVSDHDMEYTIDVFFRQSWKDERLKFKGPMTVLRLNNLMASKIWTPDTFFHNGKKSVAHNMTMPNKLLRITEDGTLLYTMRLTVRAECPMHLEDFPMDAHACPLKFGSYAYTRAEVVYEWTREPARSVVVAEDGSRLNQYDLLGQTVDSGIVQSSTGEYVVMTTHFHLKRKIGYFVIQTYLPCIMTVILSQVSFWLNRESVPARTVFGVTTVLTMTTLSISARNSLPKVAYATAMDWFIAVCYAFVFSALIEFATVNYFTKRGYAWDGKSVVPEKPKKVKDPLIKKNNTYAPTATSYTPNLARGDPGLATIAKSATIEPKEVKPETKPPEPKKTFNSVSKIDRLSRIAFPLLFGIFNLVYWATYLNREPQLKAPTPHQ
T7 sequence (P63138 26-474): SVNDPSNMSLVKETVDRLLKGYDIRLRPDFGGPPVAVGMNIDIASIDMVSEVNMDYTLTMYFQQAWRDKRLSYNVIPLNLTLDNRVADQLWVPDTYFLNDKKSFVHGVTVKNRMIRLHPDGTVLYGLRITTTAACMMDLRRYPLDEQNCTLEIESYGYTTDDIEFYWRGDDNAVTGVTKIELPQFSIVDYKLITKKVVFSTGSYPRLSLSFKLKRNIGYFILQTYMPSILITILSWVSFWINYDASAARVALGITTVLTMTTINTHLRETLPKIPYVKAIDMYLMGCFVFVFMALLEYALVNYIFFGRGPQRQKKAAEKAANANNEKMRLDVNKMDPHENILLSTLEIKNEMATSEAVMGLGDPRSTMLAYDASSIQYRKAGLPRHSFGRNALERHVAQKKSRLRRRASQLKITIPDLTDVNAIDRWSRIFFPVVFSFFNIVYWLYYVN
T7 sequence (P18508 39-466 R235E): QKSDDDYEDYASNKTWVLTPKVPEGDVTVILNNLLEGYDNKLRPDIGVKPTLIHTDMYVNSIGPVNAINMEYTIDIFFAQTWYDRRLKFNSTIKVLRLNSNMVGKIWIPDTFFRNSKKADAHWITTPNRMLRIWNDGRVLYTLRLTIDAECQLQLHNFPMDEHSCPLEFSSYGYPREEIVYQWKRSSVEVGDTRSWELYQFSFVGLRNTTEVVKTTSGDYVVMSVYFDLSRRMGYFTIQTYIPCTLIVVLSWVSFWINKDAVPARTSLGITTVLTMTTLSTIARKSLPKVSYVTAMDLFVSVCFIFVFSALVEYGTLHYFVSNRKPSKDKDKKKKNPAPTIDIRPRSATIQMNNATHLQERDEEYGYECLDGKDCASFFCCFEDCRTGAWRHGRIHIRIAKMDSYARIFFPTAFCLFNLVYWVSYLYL
T11 sequence (P23576 29-451 K183D): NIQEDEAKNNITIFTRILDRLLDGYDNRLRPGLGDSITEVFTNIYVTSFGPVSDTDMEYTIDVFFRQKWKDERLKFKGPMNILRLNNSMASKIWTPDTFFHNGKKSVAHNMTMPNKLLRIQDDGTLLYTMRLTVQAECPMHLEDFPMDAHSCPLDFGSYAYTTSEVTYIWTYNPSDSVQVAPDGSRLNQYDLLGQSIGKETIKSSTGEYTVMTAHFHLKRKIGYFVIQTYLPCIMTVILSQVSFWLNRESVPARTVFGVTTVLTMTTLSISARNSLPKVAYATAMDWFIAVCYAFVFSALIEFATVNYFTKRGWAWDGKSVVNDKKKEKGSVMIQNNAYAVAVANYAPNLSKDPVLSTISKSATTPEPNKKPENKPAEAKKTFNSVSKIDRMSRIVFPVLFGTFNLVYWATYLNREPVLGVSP
T11 sequence (P63138 26-474): as the sequence (P63138 26-474) above
T11 sequence (P18508 39-466 partner): as the sequence (P18508 39-466 R235E) above, with E197R counted along it
T6 sequence (P62813 28-455): as the sequence (P62813 28-455) above
T6 sequence (P63138 26-474, stated change not applied): as the sequence (P63138 26-474) above
T6 sequence (P18508 39-466 E206K): as the sequence (P18508 39-466 R235E) above, with E168K, E197R counted along it

With `N[C@@H](CCC(=O)O)C(=O)O` [glutamate, Glutamate] the “Relative potentiation, % of control” value [1] was 26.9 ± 6.4%, the “Relative potentiation, % of control” value [2] was 19.8 ± 11.7% and the activity at 100 µM ([3]; Glu 100 μM) was 106 ± 18.3%. For the same molecule, the activity at 1000 µM ([3]; Glu 1 mM) was 91.5 ± 15.4%, the activity at 100 µM ([4]; Glu 100 μM) was 17.8 ± 15.3% and the activity at 1000 µM ([4]; Glu 1 mM) was 50.8 ± 17.2%. For the same molecule, the activity at 100 µM ([5]; Glu 100 μM) was 155 ± 39.5%, the activity at 1000 µM ([5]; Glu 1 mM) was 102 ± 24.5% and the “Glu-induced potentiation, % of wild-type α1β2γ2” value ([6]; Glu 100 μM) was 169.4 ± 32.5%. The “Glu-induced potentiation, % of wild-type α1β2γ2” value ([6]; Glu 1 mM) was 225.7 ± 51.9%, the “Glu-induced potentiation, % of wild-type α1β2” value ([7]; Glu 100 μM) was 92.7 ± 22.0% and the “Glu-induced potentiation, % of wild-type α1β2γ2” value ([7]; Glu 100 μM) was 204.9 ± 48.7%. For the same molecule, the “Glu-induced potentiation, % of wild-type α1β2” value ([7]; Glu 1 mM) was 82.4 ± 16.9%, the “Glu-induced potentiation, % of wild-type α1β2γ2” value ([7]; Glu 1 mM) was 190.9 ± 39.2% and the “potentiation of GABA currents by glutamate” value [8] was “capable of potentiating GABA currents”. It also gave an activity at 100 µM ([9]; Glu 100 μM) of 0.3 ± 3.4%, an activity at 1000 µM ([9]; Glu 1 mM) of 5.7 ± 6.2% and an activity at 100 µM ([10]; Glu 100 μM) of 2.7 ± 3.1%. For the same molecule, the activity at 1000 µM ([10]; Glu 1 mM) was 15.1 ± 4.4%, the activity at 100 µM ([11]; Glu 100 μM) was 6.3 ± 6.9% and the activity at 1000 µM ([11]; Glu 1 mM) was 5.3 ± 2.1%. For the same molecule, the activity at 100 µM ([12]; Glu 100 μM) was 2.4 ± 2%, the activity at 1000 µM ([12]; Glu 1 mM) was 7.6 ± 1% and the activity at 100 µM ([13]; Glu 100 μM) was 2.3 ± 5%. For the same molecule, the activity at 1000 µM ([13]; Glu 1 mM) was 2.4 ± 7.9%.
